# Measurements: ChEMBL document CHEMBL4020711, “Synthesis and biological evaluation of neoglycosphingolipids” (Eur J Med Chem, 2017)
# The source made the active and inactive calls. No cut-off for these calls is given here.
# Test system: B16
# Assay: Upregulation of MMP-9 mRNA expression in mouse B16 cells at 25 uM after 24 hrs by qRT-PCR analysis
# Type: functional, cell-based
row,Structure (SMILES),Activity
1,CCCCCCCCCCCCCCCCCCOC(=O)[C@H](COC(=O)CON(C)[C@@H]1O[C@H](CO)[C@@H](O[C@@H]2O[C@H](CO)[C@H](O)[C@H](O[C@]3(C(=O)O)C[C@H](O)[C@@H](NC(C)=O)[C@H]([C@H](O)[C@H](O)CO)O3)[C@H]2O)[C@H](O)[C@H]1O)NC(=O)CCCCCCCCCCCCCCCCC,Active
2,CCCCCCCCCCCCCCCCCCOC(=O)CON(C)[C@@H]1O[C@H](CO)[C@H](O)[C@H](O)[C@H]1O,Active
3,CCCCCCCCCCCCCCCCCCOC(=O)CON(C)[C@@H]1O[C@H](CO)[C@@H](O[C@@H]2O[C@H](CO)[C@H](O)[C@H](O)[C@H]2O)[C@H](O)[C@H]1O,Active
4,CCCCCCCCCCCCCCCCCCOC(=O)[C@H](COC(=O)CON(C)[C@@H]1O[C@H](CO)[C@@H](O[C@@H]2O[C@H](CO)[C@H](O)[C@H](O)[C@H]2O)[C@H](O)[C@H]1O)NC(=O)CCCCCCCCCCCCCCCCC,Active
5,CCCCCCCCCCCCCCCCCCOC(=O)CON(C)[C@@H]1O[C@H](CO)[C@@H](O[C@@H]2O[C@H](CO)[C@@H](O[C@H]3O[C@H](CO)[C@@H](O)[C@H](O)[C@H]3O)[C@H](O)[C@H]2O)[C@H](O)[C@H]1O,Active
6,CCCCCCCCCCCCC/C=C/[C@H](O)[C@@H](CO[C@@H]1O[C@H](CO)[C@@H](O[C@@H]2O[C@H](CO)[C@H](O)[C@H](O[C@]3(C(=O)O)C[C@H](O)[C@@H](NC(C)=O)[C@H]([C@H](O)[C@H](O)CO)O3)[C@H]2O)[C@H](O)[C@H]1O)NC(=O)CCCCCCCCCCCCCCCCC,Active
7,CCCCCCCCCCCCCCCCCCOC(=O)[C@H](COC(=O)CON(C)[C@@H]1O[C@H](CO)[C@@H](O)[C@H](O)[C@H]1O)NC(=O)CCCCCCCCCCCCCCCCC,Active

# Test system: B16
# Assay: Suppression of MMP-9 mRNA expression in mouse B16 cells at 1 uM after 24 hrs by qRT-PCR analysis
# Type: functional, cell-based
row,Structure (SMILES),inhibition
1,CCCCCCCCCCCCCCCCCCOC(=O)[C@H](COC(=O)CON(C)[C@@H]1O[C@H](CO)[C@H](O)[C@H](O)[C@H]1O)NC(=O)CCCCCCCCCCCCCCCCC,inactive
2,CCCCCCCCCCCCCCCCCCOC(=O)[C@H](COC(=O)CON(C)[C@@H]1O[C@H](CO)[C@@H](O[C@@H]2O[C@H](CO)[C@@H](O[C@H]3O[C@H](CO)[C@@H](O)[C@H](O)[C@H]3O)[C@H](O)[C@H]2O)[C@H](O)[C@H]1O)NC(=O)CCCCCCCCCCCCCCCCC,inactive
3,CCCCCCCCCCCCCCCCCCOC(=O)CON(C)[C@@H]1O[C@H](CO)[C@@H](O)[C@H](O)[C@H]1O,inactive

# Test system: B16
# Assay: Upregulation of MMP-9 mRNA expression in mouse B16 cells at 1 uM after 24 hrs by qRT-PCR analysis
# Type: functional, cell-based
row,Structure (SMILES),Activity
1,CCCCCCCCCCCCCCCCCCOC(=O)CON(C)[C@@H]1O[C@H](CO)[C@@H](O[C@@H]2O[C@H](CO)[C@H](O)[C@H](O[C@]3(C(=O)O)C[C@H](O)[C@@H](NC(C)=O)[C@H]([C@H](O)[C@H](O)CO)O3)[C@H]2O)[C@H](O)[C@H]1O,Active
